SMILES strings stand for the structures. Where “and” joins values, the source holds several entries; their conditions need not be identical. Equal values may be shown once.

This is an account of results in patent US8809001B2, “High throughput assays for inhibitors and activators of PAQR receptors” (University of Florida Research Foundation, Inc., priority 2007, dated 2014).

Common to all, as to type: cell-based
In assay [1] the test system is receptors in Classes I and III. Description: FET3-lacZ response of the human PAQR panel to 10 μM progesterone: Classes I and III. The text has this:
(§1) Plasmids and primers. Human PAQRs were cloned into various vectors by PCR from commercially/publically available cDNAs. PAQRs were cloned into the pYES260 (Melcher, 2000), pRS316 (Liu et al., 1992) or pGREG536 (Jansen et al., 2005) expression vectors using gap repair. The pJK90 plasmid containing a Dual Topology Reporter (DTR)-tagged OST4 gene driven by the constitutive TPI1 promoter was kindly provided by Dr. Gunnar von Heijne (Stockholm University) (Kim et al., 2003). The OST4 open reading frame in pJK90 was replaced with the PAQR6 and mPRα open reading frames by gap repair. Primers for all cloning reactions are listed herein. Proteins expressed in pYES260 have an N-terminal 6×-histidine tag followed by a TEV protease cleavage site. Proteins expressed in pGREG536 have an N-terminal 7×-HA tag. Proteins expressed in the pRS316 vector are untagged. The pYES260, pRS316 and pGREG536 vectors allow for galactose-inducible expression via the GAL1 promoter. […] The FET3-lacZ plasmid was previously described (Kupchak et al., 2007). […]
(§2) Assays and growth conditions. […] Cells were allowed to grow to mid-log phase at which time the activity of the FET3 gene was monitored using a FET3-lacZ promoter-reporter construct. lacZ activities are presented as a percentage of activity seen in untreated cells expressing the appropriate empty expression vector control. […]

The target of the next assay is T1, PAQR9 (Homo sapiens, UniProt Q6ZVX9).
T1 construct: expressed in transfected cells; host or cells: Saccharomyces cerevisiae BY4742, GAL1-driven pYES260 plasmid
T1 sequence (Q6ZVX9 1-377): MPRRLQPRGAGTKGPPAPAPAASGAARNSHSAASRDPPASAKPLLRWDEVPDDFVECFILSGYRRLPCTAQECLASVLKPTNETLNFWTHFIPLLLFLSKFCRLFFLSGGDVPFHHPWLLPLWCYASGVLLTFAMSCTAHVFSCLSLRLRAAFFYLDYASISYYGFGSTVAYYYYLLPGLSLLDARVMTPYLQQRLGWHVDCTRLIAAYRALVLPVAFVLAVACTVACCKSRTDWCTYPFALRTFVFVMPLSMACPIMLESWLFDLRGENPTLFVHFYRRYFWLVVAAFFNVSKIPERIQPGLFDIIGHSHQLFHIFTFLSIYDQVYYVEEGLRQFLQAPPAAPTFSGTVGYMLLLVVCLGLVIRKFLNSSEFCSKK
Description: FET3-lacZ reporter repression in yeast expressing PAQR9. The text has this: (§3) Plasmids and primers. Human PAQRs were cloned into various vectors by PCR from commercially/publically available cDNAs. PAQRs were cloned into the pYES260 (Melcher, 2000), pRS316 (Liu et al., 1992) or pGREG536 (Jansen et al., 2005) expression vectors using gap repair. The pJK90 plasmid containing a Dual Topology Reporter (DTR)-tagged OST4 gene driven by the constitutive TPI1 promoter was kindly provided by Dr. Gunnar von Heijne (Stockholm University) (Kim et al., 2003). The OST4 open reading frame in pJK90 was replaced with the PAQR6 and mPRα open reading frames by gap repair. Primers for all cloning reactions are listed herein. Proteins expressed in pYES260 have an N-terminal 6×-histidine tag followed by a TEV protease cleavage site. Proteins expressed in pGREG536 have an N-terminal 7×-HA tag. Proteins expressed in the pRS316 vector are untagged. The pYES260, pRS316 and pGREG536 vectors allow for galactose-inducible expression via the GAL1 promoter. […] The FET3-lacZ plasmid was previously described (Kupchak et al., 2007). Plasmids derived from pADM4 carrying hyperactive alleles of Gpa1p (Gpa1p^Q323L) (Slessareva et al., 2006) and Gpa2p (Gpa2p^Q300L) (Harashima et al., 2002) driven by the ADH1 promoter were kindly provided by Dr. Henrik Dohlman (UNC Chapel Hill). A pRS316-based plasmid containing the STE2 gene under the control of the GAL1 promoter (Feng et al., 2000) was kindly provided by Dr. Nicholas G. Davis (Wayne State University).
Assays and growth conditions. Strains were maintained using standard protocol and grown in synthetic defined (SD) media with the appropriate amino acids to match the auxotrophies of the individual strains. Low Iron Medium (LIM) contains EDTA to limit iron-bioavailability and its composition has been previously described (Kupchak et al., 2007). […] Cells were allowed to grow to mid-log phase at which time the activity of the FET3 gene was monitored using a FET3-lacZ promoter-reporter construct. lacZ activities are presented as a percentage of activity seen in untreated cells expressing the appropriate empty expression vector control. […]

A further assay concerns the target T2, PAQR6 (Homo sapiens, UniProt Q6TCH4).
T2 construct: expressed in transfected cells; host or cells: Saccharomyces cerevisiae BY4742, GAL1-driven pYES260 plasmid
T2 sequence (Q6TCH4 1-344): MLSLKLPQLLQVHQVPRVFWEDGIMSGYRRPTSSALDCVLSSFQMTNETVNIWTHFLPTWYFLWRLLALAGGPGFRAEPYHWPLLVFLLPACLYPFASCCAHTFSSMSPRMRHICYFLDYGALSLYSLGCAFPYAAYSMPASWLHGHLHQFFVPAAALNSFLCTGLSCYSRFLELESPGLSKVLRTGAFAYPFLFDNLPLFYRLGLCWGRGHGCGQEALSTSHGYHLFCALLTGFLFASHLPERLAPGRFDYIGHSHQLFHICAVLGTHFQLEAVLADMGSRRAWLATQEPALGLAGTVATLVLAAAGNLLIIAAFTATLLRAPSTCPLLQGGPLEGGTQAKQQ
Nature of the assay: FET3-lacZ reporter repression in yeast expressing PAQR6. As to conditions: PAQR6, Table 3.
From the text: as §1, §2

For another assay, the target named is T3, mPRγ (Homo sapiens, UniProt Q9NXK6).
T3 construct: Full length and truncated mPRγ and mPRα were expressed in wild type cells grown in 2% galactose from the pGREG536 vector; expressed in transfected cells; host or cells: Saccharomyces cerevisiae (BY4742 wild type; also gpa mutants), GAL1-driven plasmids
T3 sequence (Q9NXK6 1-330): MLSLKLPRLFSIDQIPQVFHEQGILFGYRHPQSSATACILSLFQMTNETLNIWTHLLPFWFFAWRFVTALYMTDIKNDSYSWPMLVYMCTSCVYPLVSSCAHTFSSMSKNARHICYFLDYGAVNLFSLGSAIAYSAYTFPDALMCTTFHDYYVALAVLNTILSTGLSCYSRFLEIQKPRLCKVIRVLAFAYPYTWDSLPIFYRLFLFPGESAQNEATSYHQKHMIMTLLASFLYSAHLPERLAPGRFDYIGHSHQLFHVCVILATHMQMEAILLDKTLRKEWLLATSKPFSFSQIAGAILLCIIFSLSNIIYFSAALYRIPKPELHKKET
Nature of the assay: FET3-lacZ reporter repression in yeast expressing mPRγ.
From the text: as §3
Assays and growth conditions. Strains were maintained using standard protocol and grown in synthetic defined (SD) media with the appropriate amino acids to match the auxotrophies of the individual strains. Low Iron Medium (LIM) contains EDTA to limit iron-bioavailability and its composition has been previously described (Kupchak et al., 2007). […] In brief, overnights of cells grown in SD-glucose media were re-inoculated into iron-deficient LIM to induce the expression of FET3. 2% galactose was used as a carbon source to induce full expression of PAQR genes driven by the GAL1 promoter, while 0.05% galactose/1.95% raffinose was used for reduced PAQR expression. All ligands were added to the growth medium upon re-inoculation into LIM. For experiments in which steroids were added as ligands, steroids were added from ethanol stocks and “untreated” controls are actually treated with an equal volume of ethanol to control for vehicle effects. Cells were allowed to grow to mid-log phase at which time the activity of the FET3 gene was monitored using a FET3-lacZ promoter-reporter construct. lacZ activities are presented as a percentage of activity seen in untreated cells expressing the appropriate empty expression vector control. For individual experiments, each data point has been done in triplicate and the error bars represent +/−1 standard deviation. All experiments were performed at least three times and a representative experiment is shown. EC50 values were obtained using the web-based BioDataFit software using sigmoidal curve-fitting. (web site changbioscience.com/stat/ec50.html)

For the compound `CC(=O)[C@H]1CC[C@H]2[C@@H]3CCC4=CC(=O)CC[C@]4(C)[C@H]3CC[C@]12C` [Progesterone, progesterone], the “agonist effect on receptors in Classes I and III” value in assay [1] is reported as “ineffective”. The EC50 (as a rule, the concentration at which the effect is half-maximal) on PAQR9 (PAQR9, Table 3) is 13.8 nM; at PAQR6, 2.6 nM; on mPRγ (mPRγ column of Table 4, ligand alone) it was 1.1 nM; on mPRγ (mPRγ, Table 3, iron deficient LIM, 0.05% galactose) it was 1.3 nM and 1 to 3 nM; at mPRγ (mPRγ, progesterone in the presence of 100 nM RU-486), 15.5 nM; at mPRγ (mPRγ, progesterone in the presence of 10 μM testosterone) it was 10.7 nM. Also, at PAQR9 (higher than the other four Class II receptors), the “EC50 for progesterone activation of PAQR9 relative to the other four Class II receptors” value is listed as “approximately 10 fold”.
